Measurements from US5212187A, “Pyridyl alkylamine compounds which are useful against histamine H1 and H2 receptors” (Zyma SA, priority 1991, dated 1993).

Tests used:
histamine H1 -receptors = target: T1, histamine H1 -receptors (Cavia porcellus, UniProt P31389); assay: in vitro histamine H1-antagonism on isolated guinea pig ileum; settings: cumulative concentration/action curves (van Rossum), read-out: H1 -antagonism ileum -log KB (converted)
T1 construct: isolated guinea pig ileum (H1); from tissue; host or cells: isolated guinea pig ileum
T1 sequence (P31389 whole entry): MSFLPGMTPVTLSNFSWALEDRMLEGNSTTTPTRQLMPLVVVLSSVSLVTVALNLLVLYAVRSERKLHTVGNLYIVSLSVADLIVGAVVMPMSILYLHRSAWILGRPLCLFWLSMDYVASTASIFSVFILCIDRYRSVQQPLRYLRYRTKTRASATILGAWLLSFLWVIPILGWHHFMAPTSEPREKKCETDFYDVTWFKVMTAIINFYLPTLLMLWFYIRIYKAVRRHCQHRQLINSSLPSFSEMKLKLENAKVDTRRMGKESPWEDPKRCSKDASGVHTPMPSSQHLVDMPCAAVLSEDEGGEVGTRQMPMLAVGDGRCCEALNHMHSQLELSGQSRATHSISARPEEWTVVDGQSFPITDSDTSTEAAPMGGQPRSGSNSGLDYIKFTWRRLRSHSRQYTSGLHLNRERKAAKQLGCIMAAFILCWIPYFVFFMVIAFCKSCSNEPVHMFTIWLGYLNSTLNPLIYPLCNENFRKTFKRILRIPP
Text: (§1) The compounds of formula I according to the invention are distinguished by a novel overall pharmacological activity that has not been described hitherto. […] Suitable for differentiating the two types of action are, for example, in vitro tests on isolated spontaneously beating guinea pig right atrium (H2) and on isolated guinea pig ileum (H1) (Black, J. W.; Duncan, W. A. M.; Durant, G. J., Ganellin, C. R.; Parsons, M. E. (1972), "Definition and Antagonism of Histamine H2 -receptors", Nature 236, 385-390). The concentration/action curves for determining the pharmacological parameters (-log KB) are recorded using a cumulative technique according to van Rossum, J. M. (1963), "Cumulative Dose-Response Curves. II. Technique for the Making of Dose-Response Curves in Isolated Organs and the Evaluation of Drug Parameters", Arch. Int. Pharmacodyn. Ther. 143, 299-307.
(§2) (determined from isolated guinea pig ileum and atrium, […]

histamine H2 -receptors = target: T2, histamine H2 -receptors (Cavia porcellus, UniProt P47747); assay: in vitro histamine H2-antagonism on isolated spontaneously beating guinea pig right atrium; settings: cumulative concentration/action curves (van Rossum), read-out: H2 -antagonism atrium -log KB (converted)
T2 construct: isolated spontaneously beating guinea pig right atrium (H2); from tissue; host or cells: isolated spontaneously beating guinea pig right atrium
T2 sequence (P47747 whole entry): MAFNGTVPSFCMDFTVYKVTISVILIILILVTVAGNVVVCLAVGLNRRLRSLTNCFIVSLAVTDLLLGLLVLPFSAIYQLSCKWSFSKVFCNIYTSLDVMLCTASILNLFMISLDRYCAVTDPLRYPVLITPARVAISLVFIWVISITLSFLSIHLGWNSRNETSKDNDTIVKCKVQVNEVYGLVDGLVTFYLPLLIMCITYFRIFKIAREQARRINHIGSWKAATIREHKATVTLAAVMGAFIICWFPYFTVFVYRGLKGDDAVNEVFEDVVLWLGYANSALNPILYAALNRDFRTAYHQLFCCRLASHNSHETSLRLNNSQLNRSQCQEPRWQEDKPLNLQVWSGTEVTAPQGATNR
Text: as §1, §2

Kb (histamine H1 -receptors) | Kb (histamine H2 -receptors) | Compound
3.63 nM | 302 nM | CN(CCCCCCNC(=NC#N)NCCSCc1csc(N=C(N)N)n1)CCN(Cc1ccc(F)cc1)c1ccccn1 [Example 84]
7.08 nM | 95.5 nM | CN(CCCCCCCNC(=NCCSCc1csc(NC(=N)N)n1)NC#N)CCN(Cc1ccc(F)cc1)c1ccccn1 [Example 85, N-cyano-N'-[7-[N-[2-[N-(4-fluorobenzyl)-N-(2-pyridyl)amino]ethyl]-N-methylamino]heptyl]-N"-[2-[[(2-guanidino-4-thiazolyl)methyl]thio]ethyl]guanidine]
1.82 nM | 219 nM | COc1ccc(CN(CCN(C)CCCCNC(=O)NCCSCc2csc(NC(=N)N)n2)c2ccccn2)cc1 [Example 88, N-[2-[[(2-guanidino-4-thiazolyl)methyl]thio]ethyl]-N'-[4-[N-[2-[N-(4-methoxybenzyl)-N-(2-pyridyl)amino]ethyl]-N-methylamino]butyl]urea]
1.74 nM | 174 nM | COc1ccc(CN(CCN(C)CCCCCCNC(=O)NCCSCc2csc(NC(=N)N)n2)c2ccccn2)cc1 [Example 89, N-[2-[[(2-guanidino-4-thiazolyl)methyl]thio]ethyl]-N'-[6-[N-[2-[N-(4-methoxybenzyl)-N-(2-pyridyl)amino]ethyl]-N-methylamino]hexyl]urea]
1.58 nM | 141 nM | CN(CCCCCCNC(=O)NCCSCc1csc(NC(=N)N)n1)CCN(Cc1ccc(F)cc1)c1ccccn1 [Example 94, N-[6-[N-[2-[N-(4-fluorobenzyl)-N-(2-pyridyl)amino]ethyl]-N-methylamino]hexyl]-N'-[2-[[(2-guanidino-4-thiazolyl)methyl]thio]ethyl]urea]
3.09 nM | 5.25 nM | COc1ccc(CN(CCN(C)CCCCCCNC(=C[N+](=O)[O-])NCCSCc2csc(NC(=N)N)n2)c2ccccn2)cc1 [Example 96, N-[2-[[(2-guanidino-4-thiazolyl)methyl]thio]ethyl]-N'-[6-[N-[2-[N-(4-methoxybenzyl)-N-(2-pyridyl)amino]ethyl]-N-methylamino]hexyl]-2-nitro-1,1-ethenediamine]
24.5 nM | 1200 nM | CN(C)Cc1ccc(CSCCNC(=O)NCCCCN(C)CCN(Cc2ccc(F)cc2)c2ccccn2)o1 [Example 103, N-[2-[[5-[(dimethylamino)methyl]furfuryl]thio]ethyl]-N'-[4-[N-[2-[N-(4-fluorobenzyl)-N-(2-pyridyl)amino]ethyl]-N-methylamino]butyl]urea]
10.7 nM | 1350 nM | CN(C)Cc1ccc(CSCCNC(=C[N+](=O)[O-])NCCCN(C)CCN(Cc2ccc(F)cc2)c2ccccn2)o1 [Example 104, N-[2-[[5-[(dimethylamino)methyl]furfuryl]thio]ethyl]-N'-[3-[N-[2-[N-(4-fluorobenzyl)-N-(2-pyridyl)amino]ethyl]-N-methylamino]propyl]-2-nitro-1,1-ethenediamine]
36.3 nM | 28.8 nM | CC(C1=C(CCN(C)CCCCCCNC(=C[N+](=O)[O-])NCCSCc2csc(N=C(N)N)n2)Cc2ccccc21)c1ccccn1 (stereo not drawn) [Example 105, N-[2-[[(2-guanidino-4-thiazolyl)methyl]thio]ethyl]-N'-[6-[N-methyl-N-[2-[1-(2-pyridyl)ethyl]inden-2-yl]ethylamino]hexyl]-2-nitro-1,1-ethenediamine]
